Laboratory results published in PubChem BioAssay (NCI).
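Compound exposure: 48 hours, 5 concentrations, 96-well plates. The concentration for full growth arrest is given as TGI.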

Key:
Assay in all cases: DTP human tumour cell line panel, 48 h
786-0 renal = tested on: 786-0 renal
A498 renal = tested on: A498 renal
A549 NSCLC = tested on: A549 NSCLC
ACHN renal = tested on: ACHN renal
CAKI-1 renal = tested on: CAKI-1 renal
CCRF-CEM leukemia = tested on: CCRF-CEM leukemia
COLO 205 colon = tested on: COLO 205 colon
DLD-1 colon = tested on: DLD-1 colon
DMS 273 small cell lung = tested on: DMS 273 small cell lung
EKVX NSCLC = tested on: EKVX NSCLC
HCC-2998 colon = tested on: HCC-2998 colon
HCT-116 colon = tested on: HCT-116 colon
HCT-15 colon = tested on: HCT-15 colon
HL-60(TB) leukemia = tested on: HL-60(TB) leukemia
HOP-18 NSCLC = tested on: HOP-18 NSCLC
HOP-62 NSCLC = tested on: HOP-62 NSCLC
HOP-92 NSCLC = tested on: HOP-92 NSCLC
HT29 colon = tested on: HT29 colon
IGROV1 ovarian = tested on: IGROV1 ovarian
K-562 leukemia = tested on: K-562 leukemia
KM12 colon = tested on: KM12 colon
KM20L2 colon = tested on: KM20L2 colon
LOX IMVI melanoma = tested on: LOX IMVI melanoma
LXFL 529 NSCLC = tested on: LXFL 529 NSCLC
M14 melanoma = tested on: M14 melanoma
M19-MEL melanoma = tested on: M19-MEL melanoma
MALME-3M melanoma = tested on: MALME-3M melanoma
MOLT-4 leukemia = tested on: MOLT-4 leukemia
NCI-H226 lung = tested on: NCI-H226 lung
NCI-H23 lung = tested on: NCI-H23 lung
NCI-H460 lung = tested on: NCI-H460 lung
NCI-H522 lung = tested on: NCI-H522 lung
OVCAR-3 ovarian = tested on: OVCAR-3 ovarian
OVCAR-4 ovarian = tested on: OVCAR-4 ovarian
OVCAR-5 ovarian = tested on: OVCAR-5 ovarian
OVCAR-8 ovarian = tested on: OVCAR-8 ovarian
RPMI-8226 leukemia = tested on: RPMI-8226 leukemia
RXF 393 renal = tested on: RXF 393 renal
SF-268 CNS = tested on: SF-268 CNS
SF-295 CNS = tested on: SF-295 CNS
SF-539 CNS = tested on: SF-539 CNS
SK-MEL-2 melanoma = tested on: SK-MEL-2 melanoma
SK-MEL-28 melanoma = tested on: SK-MEL-28 melanoma
SK-MEL-5 melanoma = tested on: SK-MEL-5 melanoma
SK-OV-3 ovarian = tested on: SK-OV-3 ovarian
SN12C renal = tested on: SN12C renal
SNB-19 CNS = tested on: SNB-19 CNS
SNB-75 CNS = tested on: SNB-75 CNS
SNB-78 CNS = tested on: SNB-78 CNS
SR leukemia = tested on: SR leukemia
SW-620 colon = tested on: SW-620 colon
TK-10 renal = tested on: TK-10 renal
U251 CNS = tested on: U251 CNS
UACC-257 melanoma = tested on: UACC-257 melanoma
UACC-62 melanoma = tested on: UACC-62 melanoma
UO-31 renal = tested on: UO-31 renal
XF 498 CNS = tested on: XF 498 CNS
DMS 114 small cell lung = tested on: DMS 114 small cell lung

Cc1cc(=O)cc2sc3cc(Cl)ccc3nc1-2
TGI (786-0 renal): 29 µM
TGI (A498 renal): 45.4 µM
TGI (A549 NSCLC): 17.8 µM
TGI (ACHN renal): 30.6 µM
TGI (CAKI-1 renal): 46.7 µM
TGI (CCRF-CEM leukemia): 37.5 µM
TGI (COLO 205 colon): 53.7 µM
TGI (DLD-1 colon): > 100 µM
TGI (DMS 273 small cell lung): 24.6 µM
TGI (EKVX NSCLC): 25 µM
TGI (HCC-2998 colon): 24.6 µM
TGI (HCT-116 colon): 28.7 µM
TGI (HCT-15 colon): 16 µM
TGI (HL-60(TB) leukemia): 26.2 µM
TGI (HOP-18 NSCLC): > 100 µM
TGI (HOP-62 NSCLC): 29.7 µM
TGI (HOP-92 NSCLC): 57.7 µM
TGI (HT29 colon): 43.3 µM
TGI (IGROV1 ovarian): 52 µM
TGI (K-562 leukemia): 20.6 µM
TGI (KM12 colon): 24.5 µM
TGI (KM20L2 colon): 30.1 µM
TGI (LOX IMVI melanoma): 24.4 µM
TGI (LXFL 529 NSCLC): > 100 µM
TGI (M14 melanoma): 33.3 µM
TGI (M19-MEL melanoma): 31.2 µM
TGI (MALME-3M melanoma): 39.7 µM
TGI (MOLT-4 leukemia): > 60.8 µM
TGI (NCI-H226 lung): 65.6 µM
TGI (NCI-H23 lung): 42.8 µM
TGI (NCI-H460 lung): 35.4 µM
TGI (NCI-H522 lung): 7.65 µM
TGI (OVCAR-3 ovarian): 31.9 µM
TGI (OVCAR-4 ovarian): > 85.4 µM
TGI (OVCAR-5 ovarian): 43.7 µM
TGI (OVCAR-8 ovarian): 44.6 µM
TGI (RPMI-8226 leukemia): > 100 µM
TGI (RXF 393 renal): 30 µM
TGI (SF-268 CNS): 79.5 µM
TGI (SF-295 CNS): 26.6 µM
TGI (SF-539 CNS): 26.1 µM
TGI (SK-MEL-2 melanoma): 23.5 µM
TGI (SK-MEL-28 melanoma): 69.2 µM
TGI (SK-MEL-5 melanoma): 12.6 µM
TGI (SK-OV-3 ovarian): > 82.5 µM
TGI (SN12C renal): 50.3 µM
TGI (SNB-19 CNS): 61.9 µM
TGI (SNB-75 CNS): 15.7 µM
TGI (SNB-78 CNS): > 100 µM
TGI (SR leukemia): 10.3 µM
TGI (SW-620 colon): 29.8 µM
TGI (TK-10 renal): 53.8 µM
TGI (U251 CNS): 33.9 µM
TGI (UACC-257 melanoma): 69.9 µM
TGI (UACC-62 melanoma): 20.9 µM
TGI (UO-31 renal): 63.1 µM
TGI (XF 498 CNS): 31.3 µM

Nc1ccccc1S(=O)c1ccccc1 (configuration not stated)
TGI (786-0 renal): > 100 µM
TGI (A498 renal): > 100 µM
TGI (A549 NSCLC): > 100 µM
TGI (ACHN renal): > 100 µM
TGI (CAKI-1 renal): > 1 µM
TGI (CCRF-CEM leukemia): > 100 µM
TGI (COLO 205 colon): > 100 µM
TGI (DMS 114 small cell lung): > 100 µM
TGI (DMS 273 small cell lung): > 100 µM
TGI (EKVX NSCLC): > 100 µM
TGI (HCC-2998 colon): > 100 µM
TGI (HCT-116 colon): > 100 µM
TGI (HCT-15 colon): > 100 µM
TGI (HL-60(TB) leukemia): > 100 µM
TGI (HOP-18 NSCLC): > 100 µM
TGI (HOP-62 NSCLC): > 100 µM
TGI (HOP-92 NSCLC): > 100 µM
TGI (HT29 colon): > 1 µM
TGI (IGROV1 ovarian): > 100 µM
TGI (K-562 leukemia): > 100 µM
TGI (KM12 colon): > 100 µM
TGI (KM20L2 colon): > 100 µM
TGI (LOX IMVI melanoma): > 100 µM
TGI (LXFL 529 NSCLC): > 100 µM
TGI (M14 melanoma): > 100 µM
TGI (M19-MEL melanoma): > 100 µM
TGI (MALME-3M melanoma): > 100 µM
TGI (MOLT-4 leukemia): > 100 µM
TGI (NCI-H226 lung): > 100 µM
TGI (NCI-H23 lung): > 100 µM
TGI (NCI-H460 lung): > 100 µM
TGI (NCI-H522 lung): > 100 µM
TGI (OVCAR-3 ovarian): > 100 µM
TGI (OVCAR-4 ovarian): > 100 µM
TGI (OVCAR-5 ovarian): > 100 µM
TGI (OVCAR-8 ovarian): > 100 µM
TGI (RPMI-8226 leukemia): > 100 µM
TGI (RXF 393 renal): > 100 µM
TGI (SF-268 CNS): > 100 µM
TGI (SF-295 CNS): > 100 µM
TGI (SF-539 CNS): > 100 µM
TGI (SK-MEL-2 melanoma): > 100 µM
TGI (SK-MEL-28 melanoma): > 100 µM
TGI (SK-MEL-5 melanoma): > 100 µM
TGI (SK-OV-3 ovarian): > 100 µM
TGI (SN12C renal): > 100 µM
TGI (SNB-19 CNS): > 100 µM
TGI (SNB-75 CNS): > 100 µM
TGI (SW-620 colon): > 100 µM
TGI (TK-10 renal): > 100 µM
TGI (U251 CNS): > 100 µM
TGI (UACC-257 melanoma): > 1 µM
TGI (UACC-62 melanoma): > 100 µM
TGI (UO-31 renal): > 100 µM
TGI (XF 498 CNS): > 100 µM
